In ChEMBL document CHEMBL1201862, “PubChem BioAssay data set” (2004):
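Growth conditions: 96-well plates. Treatment: test compound, 48 hours, 5 concentrations. Analysis: linear interpolation between bracketing concentrations; unreached endpoints set to highest concentration. GI50 marks 50% less growth.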 The source made the active and inactive calls. No stated cut-off is given here; in the data, active = GI50 up to about 1.1 µM and inactive = higher.

What was measured:
Experiment in all cases: NCI tumour cell line growth inhibition, 48 h
M19-MEL = tested on: M19-MEL
DMS-114 = tested on: DMS-114
SNB-78 = tested on: SNB-78
KM-20L2 = tested on: KM-20L2
DMS-273 = tested on: DMS-273
HOP-18 = tested on: HOP-18
RXF 631 = tested on: RXF 631
LXFL 529 = tested on: LXFL 529
XF498 = tested on: XF498

SMILES | GI50 (M19-MEL) | GI50 (DMS-114) | GI50 (SNB-78) | GI50 (KM-20L2) | GI50 (DMS-273) | GI50 (HOP-18) | GI50 (RXF 631) | GI50 (LXFL 529) | GI50 (XF498)
COc1ccc(/C=C2/CCCC/C2=N/O)cc1 | > 100 µM (inactive) | 42.6 µM (inactive) | 94.2 µM (inactive) | > 100 µM (inactive) | 42.7 µM (inactive) | > 100 µM (inactive) | > 100 µM (inactive) | 66.8 µM (inactive) | 
Cn1c(=O)nc2n(-c3cc(C(F)(F)F)cc(C(F)(F)F)c3)c3ccccc3nc-2c1=O | 13.8 µM (inactive) | 26.3 µM (inactive) | > 100 µM (inactive) | > 100 µM (inactive) | 45.7 µM (inactive) |  |  |  | > 100 µM (inactive)
O=C(Nc1ccccc1-c1nn(CO)c(=S)n(CO)c1=O)C(F)(F)F |  | > 100 µM (inactive) | > 100 µM (inactive) |  | > 100 µM (inactive) |  |  | > 100 µM (inactive) | > 100 µM (inactive)
COc1cc(C2c3cc4c(cc3[C@@H](OCCN(C)C)C3COC(=O)[C@H]23)OCO4)cc(OC)c1O (stereo not given in full) |  |  | 5.13 µM (inactive) | 0.855 µM (active) | 0.052 µM (active) | 0.42 µM (active) | 0.0655 µM (active) | 2.79 µM (inactive) | 0.239 µM (active)
COC12CCC(=O)C=C1c1ccccc1N2C(C)=O (stereo not given) | > 100 µM (inactive) | > 100 µM (inactive) | > 100 µM (inactive) | > 100 µM (inactive) | > 100 µM (inactive) | > 100 µM (inactive) |  | > 100 µM (inactive) | > 100 µM (inactive)
CC(C)(C)c1cc(COc2c3sc(=S)sc3c(OCc3cc(C(C)(C)C)cc(C(C)(C)C)c3)c3sc(=S)sc23)cc(C(C)(C)C)c1 | > 100 µM (inactive) |  |  | > 100 µM (inactive) | > 100 µM (inactive) | > 100 µM (inactive) |  | > 100 µM (inactive) | > 100 µM (inactive)
CCOC(=O)C(=O)Nc1ccc(Cl)c(C(F)(F)F)c1 | > 100 µM (inactive) | > 100 µM (inactive) | > 100 µM (inactive) | > 100 µM (inactive) | > 100 µM (inactive) | > 100 µM (inactive) | > 100 µM (inactive) | > 100 µM (inactive) | 
Cc1nn(C)cc1P(=S)(c1ccccc1)c1ccccc1 | 59.3 µM (inactive) | 30.9 µM (inactive) | 51.2 µM (inactive) | > 100 µM (inactive) | 31.6 µM (inactive) | > 100 µM (inactive) |  | 51.3 µM (inactive) | > 100 µM (inactive)
COC/C=C\COC | > 100 µM (inactive) | > 100 µM (inactive) | > 100 µM (inactive) | > 100 µM (inactive) | > 100 µM (inactive) | > 100 µM (inactive) | > 100 µM (inactive) | > 100 µM (inactive) | > 100 µM (inactive)
CC(C)C1=Cc2ccc3c(c2C(=O)C1=O)CCCC3 | 2.9 µM (inactive) | 1.16 µM (inactive) | 4.93 µM (inactive) | 19.1 µM (inactive) | 2.21 µM (inactive) | 3.51 µM (inactive) | 9.91 µM (inactive) | 1.08 µM (active) | 2.15 µM (inactive)
C/C(=N\O)c1sc(-n2nc(-c3ccccc3)cc2-c2ccccc2)nc1C | 13.3 µM (inactive) | 12.4 µM (inactive) | 29.8 µM (inactive) | 11.5 µM (inactive) | 22.5 µM (inactive) | > 10 µM (inactive) | 14.8 µM (inactive) | 11.7 µM (inactive) | > 10 µM (inactive)
COc1c(Cl)c2c(c(OC)c1OC)-c1ccc(OC)c(=O)c(Cl)c1C(NC(C)=O)CC2 (stereo not given) | 0.262 µM (active) | 0.224 µM (active) | 0.36 µM (active) | 0.12 µM (active) | 0.116 µM (active) |  | 0.473 µM (active) | 0.243 µM (active) | 0.34 µM (active)
COc1ccc(/C=c2\sc3n(c2=O)C(N)=C(C#N)C(c2ccc(OC)cc2)C=3c2nc3ccccc3[nH]2)cc1 (stereo not given) | 28.7 µM (inactive) | 30.8 µM (inactive) |  | 42.2 µM (inactive) | 33.4 µM (inactive) |  |  |  | 
